# Legend:
# [1] = molecular target: T1, Inhibitor of nuclear factor kappa-B kinase subunit beta (Homo sapiens) (UniProt O14920); test: Selectivity interaction (Millipore kinase profiler) EUB0000124b IKBKB; settings: at 10 µM
# T1 sequence (whole entry): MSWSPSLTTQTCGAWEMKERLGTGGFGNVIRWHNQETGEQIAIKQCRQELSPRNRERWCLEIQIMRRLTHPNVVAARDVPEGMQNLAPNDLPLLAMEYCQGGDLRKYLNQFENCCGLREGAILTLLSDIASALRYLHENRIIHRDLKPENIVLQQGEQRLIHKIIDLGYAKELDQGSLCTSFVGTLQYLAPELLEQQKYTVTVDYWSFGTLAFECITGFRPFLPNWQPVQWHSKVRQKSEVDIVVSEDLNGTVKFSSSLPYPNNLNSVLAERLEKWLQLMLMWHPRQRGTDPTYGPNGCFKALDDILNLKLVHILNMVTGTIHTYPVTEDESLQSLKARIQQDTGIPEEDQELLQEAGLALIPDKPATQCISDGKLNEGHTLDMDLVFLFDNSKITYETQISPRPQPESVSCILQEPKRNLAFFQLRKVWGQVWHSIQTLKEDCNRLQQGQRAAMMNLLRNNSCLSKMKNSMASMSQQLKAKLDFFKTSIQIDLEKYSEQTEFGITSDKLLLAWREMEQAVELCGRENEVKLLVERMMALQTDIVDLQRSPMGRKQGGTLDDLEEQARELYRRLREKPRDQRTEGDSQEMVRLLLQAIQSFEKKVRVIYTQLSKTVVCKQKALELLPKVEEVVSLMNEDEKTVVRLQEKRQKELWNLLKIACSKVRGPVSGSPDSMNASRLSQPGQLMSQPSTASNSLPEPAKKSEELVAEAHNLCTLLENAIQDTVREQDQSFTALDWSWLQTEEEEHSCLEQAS
# [2] = molecular target: T2, Megakaryocyte-associated tyrosine-protein kinase (Homo sapiens) (UniProt P42679); test: Selectivity interaction (KinomeScan (DiscoverX)) EUB0000229b MATK; settings: at 10 µM
# T2 sequence (whole entry): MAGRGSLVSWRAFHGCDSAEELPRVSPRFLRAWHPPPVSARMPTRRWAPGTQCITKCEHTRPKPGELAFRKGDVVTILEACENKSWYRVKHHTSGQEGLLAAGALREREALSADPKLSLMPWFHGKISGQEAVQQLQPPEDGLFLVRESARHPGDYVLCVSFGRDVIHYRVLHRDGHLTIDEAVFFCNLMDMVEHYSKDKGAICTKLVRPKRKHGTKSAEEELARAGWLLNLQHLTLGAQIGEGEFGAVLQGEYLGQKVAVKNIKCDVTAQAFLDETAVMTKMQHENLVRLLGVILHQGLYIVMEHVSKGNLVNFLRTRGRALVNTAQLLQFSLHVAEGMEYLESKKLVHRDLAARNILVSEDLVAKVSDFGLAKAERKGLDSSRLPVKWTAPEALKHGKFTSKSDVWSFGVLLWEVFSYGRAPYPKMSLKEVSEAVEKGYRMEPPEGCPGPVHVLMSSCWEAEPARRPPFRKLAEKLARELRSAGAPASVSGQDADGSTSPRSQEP
# [3] = molecular target: Acetylcholine receptor subunit alpha (Homo sapiens, UniProt P02708); test: Selectivity interaction (Nicotinic (CNS) Receptor binding in human IMR32 cells ) EUB0000877a CHRNA1; format: cell-based, IMR-32
# Acetylcholine receptor subunit alpha, sequence (P02708 whole entry): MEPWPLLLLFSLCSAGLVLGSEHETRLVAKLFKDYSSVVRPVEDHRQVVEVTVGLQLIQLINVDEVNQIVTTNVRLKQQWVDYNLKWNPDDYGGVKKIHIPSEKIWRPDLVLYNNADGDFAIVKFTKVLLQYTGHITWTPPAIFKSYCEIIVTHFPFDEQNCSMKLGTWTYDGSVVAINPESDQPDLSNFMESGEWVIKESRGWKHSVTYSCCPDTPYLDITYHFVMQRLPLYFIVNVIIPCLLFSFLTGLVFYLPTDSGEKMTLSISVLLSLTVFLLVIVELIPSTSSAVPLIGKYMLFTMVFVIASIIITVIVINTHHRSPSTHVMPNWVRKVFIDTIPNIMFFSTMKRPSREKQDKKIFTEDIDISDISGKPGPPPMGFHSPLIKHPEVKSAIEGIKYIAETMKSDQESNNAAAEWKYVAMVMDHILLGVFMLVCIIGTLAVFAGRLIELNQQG
# [4] = molecular target: Serine/threonine-protein kinase N2 (Homo sapiens, UniProt Q16513); settings: at 10 µM
# Serine/threonine-protein kinase N2, sequence (Q16513 whole entry, looked up): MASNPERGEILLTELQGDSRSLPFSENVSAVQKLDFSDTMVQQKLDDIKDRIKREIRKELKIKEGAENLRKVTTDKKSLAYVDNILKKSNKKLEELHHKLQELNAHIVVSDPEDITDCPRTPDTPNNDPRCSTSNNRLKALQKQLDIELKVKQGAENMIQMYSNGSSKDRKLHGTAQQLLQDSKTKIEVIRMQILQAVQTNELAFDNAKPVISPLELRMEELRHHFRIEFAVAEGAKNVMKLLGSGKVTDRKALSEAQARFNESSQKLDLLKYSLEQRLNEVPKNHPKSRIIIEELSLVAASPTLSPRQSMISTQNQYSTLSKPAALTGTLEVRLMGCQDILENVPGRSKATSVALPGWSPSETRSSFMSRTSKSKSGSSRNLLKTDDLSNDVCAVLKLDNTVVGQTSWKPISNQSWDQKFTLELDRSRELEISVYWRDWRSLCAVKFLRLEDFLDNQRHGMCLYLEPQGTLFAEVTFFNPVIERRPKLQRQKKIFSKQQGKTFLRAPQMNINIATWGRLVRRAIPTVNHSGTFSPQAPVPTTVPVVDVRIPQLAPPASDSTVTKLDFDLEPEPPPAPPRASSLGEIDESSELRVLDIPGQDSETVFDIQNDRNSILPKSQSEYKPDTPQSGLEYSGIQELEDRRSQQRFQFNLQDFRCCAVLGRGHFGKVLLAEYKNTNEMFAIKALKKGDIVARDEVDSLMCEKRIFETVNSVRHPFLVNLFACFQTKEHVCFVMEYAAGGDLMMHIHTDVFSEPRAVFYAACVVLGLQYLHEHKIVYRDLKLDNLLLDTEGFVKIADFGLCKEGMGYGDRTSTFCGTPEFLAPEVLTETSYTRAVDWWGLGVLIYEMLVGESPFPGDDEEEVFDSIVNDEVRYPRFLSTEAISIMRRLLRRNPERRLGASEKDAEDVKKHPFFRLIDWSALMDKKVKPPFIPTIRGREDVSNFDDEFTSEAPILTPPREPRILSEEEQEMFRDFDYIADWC
# [5] = molecular target: T3, Dual specificity mitogen-activated protein kinase kinase 6 (Homo sapiens) (UniProt P52564); test: Selectivity interaction (ActivX KiNativ screen (kinase selectivity in THP-1 cell lysates)) EUB0000639a MAP2K6; format: subcellular; settings: lysate, at 5 µM
# T3 sequence (whole entry): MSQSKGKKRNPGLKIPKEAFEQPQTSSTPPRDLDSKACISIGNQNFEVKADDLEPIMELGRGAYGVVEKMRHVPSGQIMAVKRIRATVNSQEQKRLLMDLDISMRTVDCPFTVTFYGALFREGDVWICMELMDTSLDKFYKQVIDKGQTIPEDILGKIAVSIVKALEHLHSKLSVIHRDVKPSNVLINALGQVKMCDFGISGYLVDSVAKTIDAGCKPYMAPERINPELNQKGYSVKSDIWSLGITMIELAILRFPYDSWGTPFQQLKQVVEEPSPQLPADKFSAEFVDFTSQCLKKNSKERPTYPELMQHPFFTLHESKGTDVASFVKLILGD
# [6] = molecular target: Phosphatidylinositol 4-phosphate 5-kinase type-1 gamma (Homo sapiens) (UniProt O60331); test: Selectivity interaction (KinomeScan (DiscoverX)) EUB0000595a PIP5K1C; settings: at 10 µM
# Phosphatidylinositol 4-phosphate 5-kinase type-1 gamma (Homo sapiens), sequence (O60331 whole entry): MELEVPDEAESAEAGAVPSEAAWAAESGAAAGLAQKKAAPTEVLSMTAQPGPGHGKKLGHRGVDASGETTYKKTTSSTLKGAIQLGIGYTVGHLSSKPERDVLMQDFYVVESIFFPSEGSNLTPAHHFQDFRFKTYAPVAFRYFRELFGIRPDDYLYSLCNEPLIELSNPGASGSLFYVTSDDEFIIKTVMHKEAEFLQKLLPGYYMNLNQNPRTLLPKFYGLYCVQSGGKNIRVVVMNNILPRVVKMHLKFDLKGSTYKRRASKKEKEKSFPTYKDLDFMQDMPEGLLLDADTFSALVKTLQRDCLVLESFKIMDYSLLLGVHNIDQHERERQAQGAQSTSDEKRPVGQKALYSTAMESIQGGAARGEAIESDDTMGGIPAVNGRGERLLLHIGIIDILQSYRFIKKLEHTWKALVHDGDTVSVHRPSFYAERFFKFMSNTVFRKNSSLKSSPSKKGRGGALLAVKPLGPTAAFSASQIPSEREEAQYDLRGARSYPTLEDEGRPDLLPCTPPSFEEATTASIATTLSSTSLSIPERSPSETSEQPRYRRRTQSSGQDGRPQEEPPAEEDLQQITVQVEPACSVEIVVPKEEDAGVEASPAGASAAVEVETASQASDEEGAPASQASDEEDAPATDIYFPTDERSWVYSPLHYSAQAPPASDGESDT
# [7] = molecular target: Calcium/calmodulin-dependent protein kinase kinase 2 (Homo sapiens) (UniProt Q96RR4); test: Selectivity interaction (KinomeScan (DiscoverX)) EUB0000045b CAMKK2
# Calcium/calmodulin-dependent protein kinase kinase 2 (Homo sapiens), sequence (Q96RR4 2-588 limits assumed): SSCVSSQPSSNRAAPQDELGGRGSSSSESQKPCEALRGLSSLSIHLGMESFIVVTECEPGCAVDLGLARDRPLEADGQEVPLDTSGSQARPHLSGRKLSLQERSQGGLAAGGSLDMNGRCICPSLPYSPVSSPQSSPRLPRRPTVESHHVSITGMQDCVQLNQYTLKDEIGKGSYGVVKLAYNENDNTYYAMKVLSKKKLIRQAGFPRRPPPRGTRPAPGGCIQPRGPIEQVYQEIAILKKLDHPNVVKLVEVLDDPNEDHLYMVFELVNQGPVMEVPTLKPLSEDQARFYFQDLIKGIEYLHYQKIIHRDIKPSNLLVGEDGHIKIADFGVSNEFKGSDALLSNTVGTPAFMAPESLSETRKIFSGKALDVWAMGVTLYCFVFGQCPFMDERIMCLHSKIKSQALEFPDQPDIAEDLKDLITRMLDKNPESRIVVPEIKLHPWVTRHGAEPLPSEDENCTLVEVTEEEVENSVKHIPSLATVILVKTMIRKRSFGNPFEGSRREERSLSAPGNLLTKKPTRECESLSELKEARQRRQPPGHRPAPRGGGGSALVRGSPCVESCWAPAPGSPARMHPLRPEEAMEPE
# [8] = molecular target: Dual specificity mitogen-activated protein kinase kinase 1 (Homo sapiens, UniProt Q02750); test: Selectivity interaction (KinomeScan (DiscoverX)) EUB0000618a MAP2K1; settings: at 10 µM
# Dual specificity mitogen-activated protein kinase kinase 1, sequence (Q02750 whole entry): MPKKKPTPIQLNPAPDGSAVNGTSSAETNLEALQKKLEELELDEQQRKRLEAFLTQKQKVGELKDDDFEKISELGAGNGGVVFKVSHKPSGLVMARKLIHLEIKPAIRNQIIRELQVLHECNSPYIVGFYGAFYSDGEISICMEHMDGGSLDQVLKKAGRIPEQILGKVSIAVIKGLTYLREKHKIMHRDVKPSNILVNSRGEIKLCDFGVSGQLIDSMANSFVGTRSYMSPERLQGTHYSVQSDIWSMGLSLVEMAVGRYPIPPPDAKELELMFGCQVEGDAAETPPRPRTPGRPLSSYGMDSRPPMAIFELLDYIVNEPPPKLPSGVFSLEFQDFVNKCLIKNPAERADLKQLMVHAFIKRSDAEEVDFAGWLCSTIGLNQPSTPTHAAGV
# [9] = molecular target: RAC-gamma serine/threonine-protein kinase (Homo sapiens, UniProt Q9Y243); test: Selectivity interaction (KinomeScan (DiscoverX)) EUB0001619a AKT3; settings: at 1 µM
# [10] = molecular target: Fibroblast growth factor receptor 3 (Homo sapiens, UniProt P22607); test: (§1) Selectivity interaction (KinomeScan (DiscoverX)) EUB0000655a FGFR3; settings: at 10 µM
# Fibroblast growth factor receptor 3, sequence (P22607 23-806 limits assumed): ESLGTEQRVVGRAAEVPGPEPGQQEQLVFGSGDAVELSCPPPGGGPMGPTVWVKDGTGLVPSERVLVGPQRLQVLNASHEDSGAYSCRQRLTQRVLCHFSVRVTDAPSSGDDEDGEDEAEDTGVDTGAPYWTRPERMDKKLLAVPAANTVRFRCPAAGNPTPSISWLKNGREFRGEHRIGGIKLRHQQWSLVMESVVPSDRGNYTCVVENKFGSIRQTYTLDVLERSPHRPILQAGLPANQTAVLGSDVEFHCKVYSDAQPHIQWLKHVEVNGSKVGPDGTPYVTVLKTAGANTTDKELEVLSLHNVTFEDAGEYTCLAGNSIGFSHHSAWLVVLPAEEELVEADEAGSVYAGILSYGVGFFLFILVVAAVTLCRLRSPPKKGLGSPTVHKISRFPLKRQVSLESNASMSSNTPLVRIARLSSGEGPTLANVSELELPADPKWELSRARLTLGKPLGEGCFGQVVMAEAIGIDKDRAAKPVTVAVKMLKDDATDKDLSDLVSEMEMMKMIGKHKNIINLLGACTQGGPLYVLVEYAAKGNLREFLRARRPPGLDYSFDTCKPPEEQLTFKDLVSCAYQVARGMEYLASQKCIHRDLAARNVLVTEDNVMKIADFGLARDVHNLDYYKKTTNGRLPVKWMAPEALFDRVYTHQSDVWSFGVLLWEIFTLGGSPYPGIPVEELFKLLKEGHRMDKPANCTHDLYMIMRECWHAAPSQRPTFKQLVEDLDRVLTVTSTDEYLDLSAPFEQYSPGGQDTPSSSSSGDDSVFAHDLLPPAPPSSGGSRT
# [11] = test system: Fibroblast growth factor receptor 3 (Homo sapiens), P22607 [G697C]; test: as §1; settings: at 10 µM
# Fibroblast growth factor receptor 3 (Homo sapiens), P22607 [G697C], sequence (P22607 whole entry G697C): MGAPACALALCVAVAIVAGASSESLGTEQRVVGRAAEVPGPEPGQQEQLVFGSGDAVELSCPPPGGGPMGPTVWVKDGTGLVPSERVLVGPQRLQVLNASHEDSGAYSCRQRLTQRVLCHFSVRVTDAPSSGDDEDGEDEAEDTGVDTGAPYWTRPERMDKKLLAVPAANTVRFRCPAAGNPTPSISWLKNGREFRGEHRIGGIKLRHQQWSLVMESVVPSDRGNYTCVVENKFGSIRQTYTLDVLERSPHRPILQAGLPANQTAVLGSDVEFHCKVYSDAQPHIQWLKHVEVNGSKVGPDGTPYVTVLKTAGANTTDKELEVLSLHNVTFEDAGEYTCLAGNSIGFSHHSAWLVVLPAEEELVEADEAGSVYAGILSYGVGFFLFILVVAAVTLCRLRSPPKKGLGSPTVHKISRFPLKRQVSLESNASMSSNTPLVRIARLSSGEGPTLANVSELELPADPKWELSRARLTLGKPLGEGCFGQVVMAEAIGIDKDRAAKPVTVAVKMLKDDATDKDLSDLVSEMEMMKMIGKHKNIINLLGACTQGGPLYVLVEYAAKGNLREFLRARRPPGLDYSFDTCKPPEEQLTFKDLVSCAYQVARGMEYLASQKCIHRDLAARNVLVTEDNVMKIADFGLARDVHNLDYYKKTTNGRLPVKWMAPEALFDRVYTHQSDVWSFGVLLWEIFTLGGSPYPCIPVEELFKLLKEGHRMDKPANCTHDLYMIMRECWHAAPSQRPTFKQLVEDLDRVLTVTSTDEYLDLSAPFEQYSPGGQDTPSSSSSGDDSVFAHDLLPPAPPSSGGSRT
# [12] = Selectivity interaction (KinomeScan (DiscoverX)) EUB0000655a PKNB; settings: at 10 µM
# [13] = molecular target: T4, Interleukin-1 receptor-associated kinase 4 (Homo sapiens) (UniProt Q9NWZ3); test: Selectivity interaction (SelectScreen profiling (Invitrogen)) EUB0000607a IRAK4; settings: at 2 µM
# T4 sequence (whole entry): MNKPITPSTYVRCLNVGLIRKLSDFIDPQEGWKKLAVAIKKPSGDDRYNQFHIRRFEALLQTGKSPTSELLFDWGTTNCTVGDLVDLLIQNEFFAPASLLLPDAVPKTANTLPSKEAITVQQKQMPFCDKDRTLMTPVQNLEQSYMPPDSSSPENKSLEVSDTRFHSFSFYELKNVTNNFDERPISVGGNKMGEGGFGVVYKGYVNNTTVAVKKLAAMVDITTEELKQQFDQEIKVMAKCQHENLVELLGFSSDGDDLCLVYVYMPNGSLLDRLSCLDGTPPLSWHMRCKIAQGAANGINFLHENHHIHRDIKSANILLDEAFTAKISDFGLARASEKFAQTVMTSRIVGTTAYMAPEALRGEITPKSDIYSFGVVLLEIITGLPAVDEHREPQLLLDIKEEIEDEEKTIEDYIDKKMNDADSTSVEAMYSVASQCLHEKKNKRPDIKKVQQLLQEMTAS
smiles,measurement,setting,value
CC(=O)Nc1cccc(-n2c(=O)n(C3CC3)c(=O)c3c(Nc4ccc(I)cc4F)n(C)c(=O)c(C)c32)c1,% of control,[1],111%
COc1cc(N(C)c2ccnc3ccc(C(F)(F)F)cc23)cc(OC)c1OC,% binding,[2],81%
CCC(=O)N1CC[C@H](Nc2ncnc3c2CN(c2cnc(OC)c(C(F)(F)F)c2)CC3)C1 [LENIOLISIB],IC50,[3],> 30 µM
CCN(CC)CCCCNc1ncc2cc(-c3cc(OC)cc(OC)c3)c(NC(=O)NC(C)(C)C)nc2n1,% of control,[4],100%
CC[C@@H]1[C@H](F)C(=O)N[C@@H]1COc1nccc2cc(C(N)=O)c(OC)cc12 [ZIMLOVISERTIB],% of inhibition,[5],55.8%
COCC(=O)NC/C=C/c1ccc2ncnc(Nc3ccc(Oc4ccc(C)nc4)c(C)c3)c2c1 [CP-724714],% of control,[6],93%
C=CC(=O)Nc1cc(-n2c(=O)ccc3cnc4ccc(-c5ccc(NS(C)(=O)=O)cc5)cc4c32)ccc1C,% of control,[7]; at 1 µM,100%
same,% of control,[7]; at 10 µM,92%
O[C@H]1CC[C@H](Nc2ncc3nc(Nc4c(F)cc(F)cc4F)n([C@H]4CCOC4)c3n2)CC1,% of control,[8],100%
N#Cc1cccc(-c2c[nH]c3ncnc(N4CCOCC4)c23)c1,% of control,[9],100%
CN(C)CCOc1ccc(-c2nc(-c3ccncc3)c(-c3ccc4c(c3)CC/C4=N\O)[nH]2)cc1,% of control,[10],100%
same,% of control,[11],100%
same,% of control,[12],65%
CNC(=O)Nc1ccc(-c2nc(N3CC4CCC(C3)O4)c3cnn(C4CCC5(CC4)OCCO5)c3n2)cc1,% of inhibition,[13],3%

# — ChEMBL document CHEMBL5465560, “Selectivity Literature for EUbOPEN Chemogenomic Library” (2024)
